Laboratory results from paper PMC6151468, “Efficacy of Bioactive Cyclic Peptides in Rheumatoid Arthritis: Translation from In Vitro to In Vivo Models” (Molecules : A Journal of Synthetic Chemistry and Natural …, 2017).

System: Collagen Antibody-Induced Arthritis (CAIA) model
Test: CAIA model in mice, first study
Format: in vivo
Conditions: ten-day period; Humira 10 mg/kg bolus day 1; Lex 5.2 0.32 mg/kg/day i.p.; compared with stimulated untreated animals; Figure 11
Description: In light of the ability of cyclic peptides to alter the behaviour of macrophages, down-regulating TNF secretion both in vitro and in vivo, the investigation was extended to examine whether such peptides could have an impact on inflammatory diseases such as rheumatoid arthritis, where activation of macrophages, and secretion of TNF, is an important component. The CAIA model was chosen, as its use of lipopolysaccharide as one of the stimulants mirrors the models already employed. The other inducer of inflammation is a cocktail of anti-collagen antibodies, which are agents thought to contribute to disease in the human condition. A scheme of the experimental design is shown in Figure 8, and detailed methodology is provided in the Materials and Methods section of this article. […]
A range of different parameters was measured, as follows: (i) clinical score—a subjective assessment of the number of joints in each paw affected; (ii) paw thickness—measurement of oedema in the paws, reflecting the severity of inflammation; (iii) TNF levels—rise in the bloodstream immediately after LPS administration; (iv) weight change—loss of weight resulting from inflammation. […]

Substance: adalimumab [Humira]
- Change in weight: much reduced
